# Results: patent publication EP0531370B1, “INHIBITION OF VIRAL INFECTION” (priority 1990, dated 1991)
# Where two headings read alike, the source gives them in different places.
# Tests used:
# [1] = tested on: retroviral vector pWET-TAC ψ2; assay: Infection of NIH-3T3 cells by retroviral vector pWeT-TAC ψ2, count of G418-resistant colonies; format: cell-based; conditions: for inhibition at 1000 µM / activity at 1000 µM: 1mM; for activity at 1000 µM / activity at 3000 µM / activity at 2000 µM: read-out: % of control colonies counted; for inhibition of G418-resistant colony formation (in words): concentrations of Table 1 (1mM to 3mM); for inhibition at 3000 µM / activity at 3000 µM: 3mM; for inhibition at 2000 µM / activity at 2000 µM: 2mM
# [2] = tested on: integration of foreign DNA into the genome; conditions: calcium phosphate mediated DNA transfection; cited from earlier work
# in vitro [3] = conditions: human, t-cell line
# T-cell adapted HIV-1 = assay: microbe, parasite or virus in culture; format: cell-based; conditions: for minimal effective concentration: Human immunodeficiency virus 1, T-cell, 336 h, read-out: Minimum Antiviral Concentration; for Therapeutic Index: T-Cell Line with T-virus; for antiviral activity (P24 antigen level in supernatant): virus T and the T-cell line, Day 14
# monocyte adapted HIV-1 = assay: microbe, parasite or virus in culture; format: cell-based; conditions: for minimal effective concentration: Human immunodeficiency virus 1, Monocyte, 336 h, read-out: Minimum Antiviral Concentration; for Therapeutic Index: PBMC's with M-virus, * partial inhibition only; for virus production (P24 antigen level in supernatant): virus M and PBMC's, Day 14, all concentrations tested
# in vitro [4] = conditions: human, pbmc
# MPSV^28 [5] = assay: Southern hybridisation of genomic DNA of NIH/3T3 cells after infection with MPSV^28; format: cell-based, murine myeloproliferative sarcoma virus; conditions: 2mM, most obvious at 24 and 48 hours after infection
# MPSV^28 [6] = assay: Dot-blot analysis of high molecular weight DNA of HL-60 cells after infection with MPSV^28; format: cell-based, murine myeloproliferative sarcoma virus; conditions: 1.5mM, 72 hours after infection
# Method: In this case cells were pretreated with 0.4% DMSO and […] polybrene for 24 hours. At the time of infection this medium was removed and fresh medium containing the same concentration of DMSO and polybrene, plus 5 x 10^5 c.f.u. of the vector were added to 10^7 cells either in the presence (+) or absence (-) of the inhibitor (5 x 10^6 cells for each condition). 24 hours after infection the medium was removed and cells were placed in fresh medium containing no DMSO or polybrene. Cells were incubated in this medium for another 48 hours before being harvested (approximately 2 x 10^7 cells with, and 2 x 10^7 without the inhibitor).
# [7] = tested on: phytohaemagglutinin (PHA) stimulated peripheral blood mononuclear cells (PBMC); assay: Cell toxicity assay, trypan blue exclusion (Example 6), PBMC; conditions: 150µM; PBMC's; Days 1, 6 and 10
# [8] = tested on: monocyte adapted laboratory strain of HIV; format: cell-based, HIV-1; conditions: monocyte line, Day 7
# [9] = tested on: continuous human T-cell line; assay: Cell toxicity assay, trypan blue exclusion (Example 6), T-cell line; conditions: 150µM, Days 1, 6 and 10
# [10] = tested on: AZT-resistant HIV isolate; format: cell-based, HIV-1
# in vitro [11] = conditions: human
# vaccinia virus = conditions: BSC40 cells, 24 hours at 37°C, cited from earlier work
# [12] = NIH3T3, NIH-3T3, G418-resistant colonies, read-out: % inhibition achieved
# [13] = NIH3T3, NIH-3T3, G418-resistant colonies
smiles,measurement,setting,value
NC(=O)c1cccc(NC=O)c1 [3-N-formylaminobenzamide],inhibition at 1000 µM,[1]; [12],64%
same,activity at 1000 µM,[1]; [13],36%
same,inhibition of G418-resistant colony formation (in words),[1],even greater inhibition
NC(=O)c1cccc(N)c1 [3-aminobenzamide],integration of foreign DNA into the genome,[2],blocked
same,inhibition of the formation of G418 resistant colonies,[1]; 1mM inhibitor,small degree of inhibition
same,inhibition at 3000 µM,[1]; [12],45%
same,activity at 3000 µM,[1]; [13],55%
same,inhibition at 3000 µM,"[1]; NIH3T3, read-out: inhibition of the formation of G418 resistant colonies",50%
same,inhibition at 5000 µM,"[1]; NIH3T3, 5mM, read-out: inhibition of the formation of G418 resistant colonies",60%
same,inhibition of G418-resistant colony formation (in words),[1],significant degree of inhibition
"Nc1cccc(C(=O)O)c1 [3-aminobenzoic acid, reference compound]",inhibition at 3000 µM,[1]; [12],10%
same,activity at 3000 µM,[1]; [13],90%
same,inhibition of G418-resistant colony formation (in words),[1],did not inhibit
COc1cccc(C(N)=O)c1 [3-methoxybenzamide],MNTC,in vitro [3],3 mM
same,integration of foreign DNA into the genome,[2],blocked
same,minimal effective concentration,T-cell adapted HIV-1,0.19 µM
same,Therapeutic Index,T-cell adapted HIV-1,>15 800
same,antiviral activity (P24 antigen level in supernatant),T-cell adapted HIV-1,showed particular activity
same,minimal effective concentration,monocyte adapted HIV-1,0.19 µM
same,Therapeutic Index,monocyte adapted HIV-1,>15 800*
same,virus production (P24 antigen level in supernatant),monocyte adapted HIV-1,partially inhibited virus production
same,inhibition at 2000 µM,[1]; [12],82%
same,activity at 2000 µM,[1]; [13],18%
same,inhibition of G418-resistant colony formation (in words),[1],very effective
same,MNTC,in vitro [4],3 mM
same,appearance of complete proviral DNA in the genomic DNA,MPSV^28 [5],inhibited
same,appearance of the proviral DNA,MPSV^28 [6],inhibited
"NC(=O)c1ccc(N)cc1 [4-aminobenzamide, reference compound]",inhibition at 3000 µM,[1]; [12],12%
same,activity at 3000 µM,[1]; [13],88%
same,inhibition of G418-resistant colony formation (in words),[1],did not inhibit
"NC(=O)c1ccc(NC=O)cc1 [4-formylaminobenzamide, reference compound]",inhibition at 1000 µM,[1]; [12],8%
same,activity at 1000 µM,[1]; [13],92%
same,inhibition of G418-resistant colony formation (in words),[1],did not inhibit
"COc1ccc(C(N)=O)cc1 [4-methoxybenzamide, reference compound]",inhibition at 2000 µM,[1]; [12],15%
same,activity at 2000 µM,[1]; [13],85%
same,inhibition of G418-resistant colony formation (in words),[1],did not inhibit
"Cc1cn([C@H]2C[C@H](N=[N+]=[N-])[C@@H](CO)O2)c(=O)[nH]c1=O [AZT, 3'-azido-2',3'-dideoxythymidine, reference compound]",MNTC,in vitro [3],1 mM
same,toxicity (viable counts),[7],non-toxic
same,antiviral activity (supernatant p24 antigen),[8]; 0.15µM,significant antiviral activity
same,minimal effective concentration,T-cell adapted HIV-1,0.007 µM
same,Therapeutic Index,T-cell adapted HIV-1,142 900
same,antiviral activity (P24 antigen level in supernatant),T-cell adapted HIV-1,inhibited virus with a good dose response
same,toxicity (viable counts),[9],non-toxic
same,virus inhibition (supernatant p24 antigen),[10],inhibited completely
same,virus suppression (supernatant p24 antigen),[10],did not suppress the virus
same,minimal effective concentration,monocyte adapted HIV-1,0.007 µM
same,Therapeutic Index,monocyte adapted HIV-1,142 900
same,virus production (P24 antigen level in supernatant),monocyte adapted HIV-1,inhibited virus with a good dose response
same,MNTC,in vitro [4],1 mM
"O=C1NC(CCCl)Oc2ccccc21 (stereo not drawn) [Chlorthenoxazine, chlorthenoxazine]",antiviral activity (supernatant p24 antigen),[8]; concentrations tested 150 to 0.015µM,active and has a clear dose response
same,antiviral activity (supernatant p24 antigen),"[10]; 0.15µM, PBMC's, Day 7, no smooth dose response",possibly active
same,viability at 336 h,in vitro [11],> 50%
NC(=O)c1cccnc1 [nicotinamide],viral replication,vaccinia virus; 20mM,affected
same,decrease of viral replication,vaccinia virus; 60mM,greater than 99%
